# Laboratory results taken from patent US20020032316A1, “Hapten-carrier conjugates for use in drug-abuse therapy and methods for preparation of same” (priority 1995, published 2002).
# Like-named read-outs stand apart in the source and are kept apart here.
# Tests used:
# [1] = cited from earlier work
# [2] = system: antibodies in the rat sera binding to PS-5.4 HEL; conditions: sera of rats immunized with cocaine-rCTB conjugate
# anti-cocaine antisera = assay: Specificity competition ELISA: drugs inhibiting binding of antibodies to cocaine-HEL; conditions: pool of antisera of mice immunized with cocaine-CTB PS-5.53; varying concentrations
# rats = assay: Discrimination of cocaine from saline, 2-lever procedure; assay type: in vivo; conditions: Rattus norvegicus, ip; rats trained on 10 mg/kg cocaine i.p., cumulative dosing; read-out: ED50±95% C.I. for cocaine-appropriate responses
# Source text: After cocaine injections are given, the animals are required to press one of the levers (drug-appropriate lever) 10 times (FR 10) to obtain a food pellet; upon saline injections, they are required to press the other lever (saline-appropriate lever) 10 times to obtain a food pellet. When animals have learned to discriminate cocaine from saline, at least 90% of the total responses are made on the appropriate lever for several consecutive days. In order to incorporate a cumulative dosing procedure during later substitution test sessions, training sessions are made up of multiple components, each lasting for 10 min or until 10 FRs are completed, whichever occurred first.
# Following training, substitution test sessions with different doses of cocaine (0.3-17.8 mg/kg) are conducted twice weekly, with training sessions on intervening days. Drug substitution test sessions consisted of four 10 min components, each preceded by a 15 min time-out period. During substitution tests, completion of 10 responses on either lever produce a food pellet. Incremental doses of cocaine are injected at the beginning of each of the 4 time-out periods. Overlapping ranges of cumulative doses are studied on different test days, permitting a seven-point cumulative dose-response curve to be determined in a single week. […]
# mice = conditions: for total levels of cocaine in the brains of control mice: mouse, in vivo
# [3] = cited from earlier work; for peak plasma concentration: in vivo; for plasma half life: Henningfield (1995)
# [4] = Cocaine LD50 and time-to-death in immunized and naive mice; conditions: BALB/c, mouse, in vivo
# Protocol: In these experiments, cocaine-immunized and control carrier-immunized mice are injected i.v. with cocaine at doses around the previously defined LD50. Ten mice are used at each point, and the data is analyzed using a Cochran-Mantel-Haenzel Chi-squared test.
# In addition, a failure time model is used to analyze the time-to-death induced by cocaine. The extent to which the anti-cocaine antibodies increase both (a) the dose of cocaine required for lethality and (b) the time-to-death are measures of efficacy in this model. These provide a rapid and rigorous test of the in vivo efficacy of the antibodies.
# The efficacy of therapeutic vaccination against cocaine was assessed by determining the lethal dose of cocaine (LD50) in immunized and naive animals. […] Each of the mice was bled at day 34 and serum antibody titers and competition with cocaine were assessed. […] For the LD50 experiment, 4-6 mice were used per group and each group was carefully matched for antibody titer and apparent affinity for free cocaine.
# [5] = system: antibodies in the sera binding to PS-55 HEL; assay: Competition ELISA with free nicotine or cotinine; parameters: species or system mouse; conditions: sera of mice injected with PS-55 BSA
# Protocol: To determine whether the induced antibodies are capable of recognizing the free nicotine molecule, a competition ELISA was performed. In this assay, free nicotine competes with PS-55 HEL coated to ELISA plates for the binding of antibodies in the sera. If the antibodies that have a high affinity for nicotine comprise most of the antibodies binding to the PS-55 HEL, then low concentrations of nicotine are capable of effectively inhibiting the antibody binding. For 3 out of 4 mice described above which were injected with PS-55 BSA, antibody binding to PS-55 HEL was inhibited by free nicotine (FIG. 25). Note that the presence of antibody specific for the conjugate alone would not be expected to interfere with the action of the anti-nicotine antibody.
# [6] = in vivo; cited from earlier work
# [7] = pre-incubation with 50-fold excess unlabeled nicotine
# Protocol: Immune sera from the above experiment was incubated with [^3H]-nicotine and protein-G-conjugated Sepharose beads (Gammabind-G Sepharose, Pharmacia), which bind IgG in the sera samples. The antibody-bound [^3H]-nicotine was isolated by centrifugation of the beads and was detected by scintillation counting of the beads.
# [8] = HPLC analysis of methyl ester hydrolysis of succinylated norcocaine; conditions: 25° C.
# [9] = system: eukaryotic cells expressing ganglioside GM1; assay type: cell-based
molecule,measurement,setting,value
C[C@]12N[C@H](Cc3ccccc31)c1ccccc12 [MK-801],increase of cocaine LD50,[1]; alone,1.3 fold
same,increase of cocaine LD50,[1]; combined with propanolol,1.4 fold
"CN1[C@H]2CC[C@@H]1[C@@H](C(=O)O)[C@@H](OC(=O)c1ccccc1)C2 [benzoylecgonine, 3β-(Benzoyloxy)-8-methyl-8-azabicyclo[3.2.1]octane-2β-carboxylic acid]",competition of rat sera,[2],none of the sera tested are able to be competed by benzoylecgonine
same,inhibition of binding of antibodies to cocaine-HEL,anti-cocaine antisera,at high concentrations
"COC(=O)[C@H]1[C@@H](OC(=O)c2ccccc2)C[C@@H]2CC[C@H]1N2C [cocaine, 3β-(Benzoyloxy)-8-methyl-8-azabicyclo[3.2.1]octane-2β-carboxylic acid methyl ester]",ED50,rats,2.14 ± 0.2 mg/kg
same,time of peak cocaine levels,mice; after intranasal administration,2 to 5 min
same,time of peak cocaine levels,mice; after intravenous injection,0.25 min
same,total levels of cocaine in the brains of control mice,mice,1538 ng/g
same,total levels of cocaine in the brains of control mice,mice; iv,2260 ng/g
same,published peak plasma levels,"[3]; in addicts, Ambre 1991, Cone 1995, Cone 1989",0.3 to 1.5 µg/mL
same,peak plasma concentration,[3],0.3 to 1 µg/mL
same,LD50,[4]; ip,20 mg/kg
same,LD50,[4]; iv,3 mg/kg
"CN1C(=O)CCC1c1cccnc1 (stereo not shown) [cotinine, N-Methyl-2-(3-pyridyl)-5-pyrrolidone]",competition for antibodies in the sera,[5],cannot compete with antibodies in any of the sera except at very high concentrations
same,plasma half life,[3],19 h
CNCCCN1c2ccccc2CCc2ccccc21 [desipramine],cocaine abstinence rate following treatment,[6],≤ 70%
"CN1CCCC1c1cccnc1 (stereo not shown) [nicotine, 1-Methyl-2-(3-pyridyl)pyrrolidine]",inhibition of [^3H]-nicotine binding to antibodies,[7],completely inhibited the binding
same,plasma half life,[3],approximately two
same,peak plasma concentration,[3],0.025 to 0.05 µg/mL
"COC(=O)[C@H]1[C@@H](OC(=O)c2ccccc2)C[C@@H]2CC[C@H]1N2C(=O)CCC(=O)O [succinylated norcocaine, 3β-(Benzoyloxy)-8-succinoyl-8-azabicyclo[3.2.1]octane-2β-carboxylic acid methyl ester]",time for 5% degradation,[8]; pH 6,1.30 years
same,time for 5% degradation,[8]; pH 8,10.96 days
rCTB,binding to cells (flow cytometry),[9],bound to eukaryotic cells expressing ganglioside GM1
